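Results reflect a 48-hour exposure of cells in 96-well plates to compound at five concentrations. TGI: concentration producing complete growth inhibition.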
Assays:
Assay in all cases: NCI anticancer screen, dose series, 48 h
[1] = system: M14 melanoma
[2] = system: SR leukemia
[3] = system: MALME-3M melanoma
[4] = system: UACC-257 melanoma
[5] = system: NCI-H522 lung
[6] = system: EKVX NSCLC
[7] = system: T-47D breast
[8] = system: BT-549 breast
[9] = system: CAKI-1 renal
[10] = system: CCRF-CEM leukemia
[11] = system: MOLT-4 leukemia
[12] = system: SK-MEL-5 melanoma
[13] = system: HL-60(TB) leukemia
[14] = system: OVCAR-3 ovarian
[15] = system: HT29 colon
[16] = system: MDA-MB-231 breast
[17] = system: SK-OV-3 ovarian
[18] = system: NCI-H23 lung
[19] = system: HOP-92 NSCLC
[20] = system: SF-539 CNS
[21] = system: IGROV1 ovarian
[22] = system: HCC-2998 colon
[23] = system: ACHN renal
[24] = system: SF-268 CNS
[25] = system: U251 CNS
[26] = system: MCF7 breast
[27] = system: SW-620 colon
[28] = system: UO-31 renal
[29] = system: MDA-MB-435
[30] = system: HCT-15 colon
[31] = system: TK-10 renal
[32] = system: 786-0 renal
[33] = system: NCI/ADR-RES ovarian
[34] = system: PC-3 prostate
[35] = system: LOX IMVI melanoma
[36] = system: NCI-H226 lung
[37] = system: K-562 leukemia
[38] = system: UACC-62 melanoma
[39] = system: OVCAR-8 ovarian
[40] = system: SNB-75 CNS
[41] = system: SF-295 CNS
[42] = system: HS 578T breast
[43] = system: HCT-116 colon
[44] = system: OVCAR-4 ovarian
[45] = system: SK-MEL-28 melanoma
[46] = system: RPMI-8226 leukemia
[47] = system: SNB-19 CNS
[48] = system: COLO 205 colon
[49] = system: NCI-H460 lung
[50] = system: A549 NSCLC
[51] = system: OVCAR-5 ovarian
[52] = system: KM12 colon
[53] = system: SN12C renal
[54] = system: HOP-62 NSCLC
[55] = system: MDA-N
[56] = system: DU-145 prostate
[57] = system: A498 renal
[58] = system: SK-MEL-2 melanoma
[59] = system: RXF 393 renal

CC(=O)Nn1c(Cc2ccc(Cl)cc2)nn(C)c1=O was tested, and the TGI [1] was > 100 µM, the TGI [2] was > 100 µM and the TGI [3] was > 100 µM. For the same compound, the TGI [4] was > 100 µM, the TGI [5] was > 100 µM and the TGI [6] was > 100 µM. The TGI [7] was > 100 µM, the TGI [8] was > 100 µM and the TGI [9] was > 100 µM. For the same compound, the TGI [10] was > 100 µM, the TGI [11] was > 100 µM and the TGI [12] was > 100 µM. The TGI [13] was > 100 µM, the TGI [14] was > 100 µM and the TGI [15] was > 100 µM. For the same compound, the TGI [16] was > 100 µM, the TGI [17] was > 100 µM and the TGI [18] was > 100 µM. The TGI [19] was > 100 µM, the TGI [20] was > 100 µM and the TGI [21] was > 100 µM. The TGI [22] was > 100 µM, the TGI [23] was > 100 µM and the TGI [24] was > 100 µM. The TGI [25] was > 100 µM, the TGI [26] was > 100 µM and the TGI [27] was > 100 µM. For the same compound, the TGI [28] was > 100 µM, the TGI [29] was > 100 µM and the TGI [30] was > 100 µM. For the same compound, the TGI [31] was > 100 µM, the TGI [32] was > 100 µM and the TGI [33] was > 100 µM. The TGI [34] was > 100 µM, the TGI [35] was > 100 µM and the TGI [36] was > 100 µM. For the same compound, the TGI [37] was > 100 µM, the TGI [38] was > 100 µM and the TGI [39] was > 100 µM. The TGI [40] was > 100 µM, the TGI [41] was > 100 µM and the TGI [42] was > 100 µM. For the same compound, the TGI [43] was > 100 µM, the TGI [44] was > 100 µM and the TGI [45] was > 100 µM. For the same compound, the TGI [46] was > 100 µM, the TGI [47] was > 100 µM and the TGI [48] was > 100 µM. The TGI [49] was > 100 µM, the TGI [50] was > 100 µM and the TGI [51] was > 100 µM. For the same compound, the TGI [52] was > 100 µM, the TGI [53] was > 100 µM and the TGI [54] was > 100 µM. For the same compound, the TGI [55] was > 100 µM, the TGI [56] was > 100 µM and the TGI [57] was > 100 µM. For the same compound, the TGI [58] was > 100 µM.
For O=c1c2c3c(sc2nc2n1sc1nc4sc5c(c4c(=O)n12)CCCC5)CCCC3, the TGI [1] was > 100 µM, the TGI [2] was > 84.9 µM and the TGI [4] was > 100 µM. For the same compound, the TGI [5] was 31.1 µM, the TGI [6] was 27.8 µM and the TGI [7] was 17.1 µM. For the same compound, the TGI [8] was 42.4 µM, the TGI [9] was 36.4 µM and the TGI [10] was 60.7 µM. The TGI [11] was > 66.9 µM, the TGI [12] was > 100 µM and the TGI [13] was 62.3 µM. For the same compound, the TGI [14] was > 62.5 µM, the TGI [15] was > 58.8 µM and the TGI [16] was > 69.5 µM. The TGI [17] was > 100 µM, the TGI [18] was 79.7 µM and the TGI [19] was > 91.8 µM. For the same compound, the TGI [20] was > 100 µM, the TGI [21] was > 100 µM and the TGI [22] was > 76.8 µM. The TGI [23] was > 100 µM, the TGI [24] was > 100 µM and the TGI [25] was > 100 µM. The TGI [26] was 50.8 µM, the TGI [27] was 63.5 µM and the TGI [28] was 43.9 µM. For the same compound, the TGI [29] was > 100 µM, the TGI [30] was > 100 µM and the TGI [31] was > 100 µM. The TGI [32] was 31 µM, the TGI [33] was > 71.4 µM and the TGI [34] was > 100 µM. For the same compound, the TGI [35] was > 100 µM, the TGI [36] was 98.1 µM and the TGI [37] was > 63.3 µM. The TGI [38] was > 100 µM, the TGI [39] was > 100 µM and the TGI [40] was > 32.8 µM. For the same compound, the TGI [41] was > 100 µM, the TGI [42] was > 100 µM and the TGI [43] was > 100 µM. For the same compound, the TGI [44] was 37.2 µM, the TGI [45] was > 100 µM and the TGI [46] was > 63.2 µM. The TGI [47] was > 100 µM, the TGI [48] was 64.7 µM and the TGI [49] was > 100 µM. For the same compound, the TGI [50] was > 100 µM, the TGI [51] was > 100 µM and the TGI [59] was 38.5 µM. The TGI [52] was > 100 µM, the TGI [53] was > 100 µM and the TGI [54] was > 100 µM. For the same compound, the TGI [55] was 97.4 µM, the TGI [56] was > 74.3 µM and the TGI [57] was > 100 µM. The TGI [58] was > 100 µM.

Source: PubChem BioAssay (NCI)
